Results taken from ChEMBL document CHEMBL5606460, “ASAP - DENV-2 NS2B-NS3 protease fluorescence single point” (2024).

What was measured:
[1] = biological target: Genome polyprotein (dengue virus type 2) (UniProt P29990)
[2] = biological target: Genome polyprotein (dengue virus type 2) (UniProt P29990); settings: Thailand/16681/1984, Concentration 25.0 uM, Number of replicates 1.0
[3] = Thailand/16681/1984, Concentration 50.0 uM, Number of replicates 1.0
[4] = Thailand/16681/1984, Concentration 100.0 uM, Number of replicates 1.0
[5] = Thailand/16681/1984, Concentration 150.0 uM, Number of replicates 1.0
[6] = Thailand/16681/1984, Concentration 200.0 uM, Number of replicates 1.0

COCc1nn(CC#Cc2ccc(Cl)cc2)c(=O)o1
inhibition [1, 3]: -7.03%
inhibition [1, 4]: 5.18%
inhibition [1, 5]: -4.23%
inhibition [1, 6]: 2.77%

Brc1nc(Br)n(Cc2cscn2)n1
inhibition [1, 3]: -6.97%
inhibition [1, 4]: 2.39%
inhibition [1, 5]: -9.57%
inhibition [1, 6]: -1.34%

Cc1nc(C=O)c2ccccn12
inhibition [2]: 33.3%

FC(F)(F)c1nnc(COc2cncnc2)s1
inhibition [1, 4]: -9.02%
inhibition [1, 6]: -8.02%

c1csc(-c2nnc(Sc3ncnc4sccc34)o2)c1
inhibition [1, 3]: -7.64%
inhibition [1, 4]: 5.5%
inhibition [1, 5]: 1.07%
inhibition [1, 6]: 9.38%

Clc1snnc1CN1CCC(c2nc3ccccc3o2)CC1
inhibition [1, 3]: -8.6%
inhibition [1, 4]: 2.94%
inhibition [1, 5]: -7.28%
inhibition [1, 6]: 8.81%

[O-][S@@+](Cc1ncccn1)c1ncccc1Br
inhibition [1, 3]: -6.39%
inhibition [1, 4]: 2.18%
inhibition [1, 5]: -5.36%
inhibition [1, 6]: -0.101%

O=c1ccccn1-c1ncc(Br)cn1
inhibition [1, 3]: -2.83%
inhibition [1, 4]: -4.93%
inhibition [1, 5]: -7.63%
inhibition [1, 6]: 1.63%

Brc1cccc2cn(Cc3ncccn3)nc12
inhibition [1, 3]: -7.17%
inhibition [1, 4]: 6.27%
inhibition [1, 5]: -8.46%
inhibition [1, 6]: 14.4%

O=S(=O)(CCOc1ccccc1)c1nccs1
inhibition [1, 3]: -5.02%
inhibition [1, 4]: -2.8%

O=c1c2ccccc2ncn1CCCn1cnc2ccccc2c1=O
inhibition [1, 4]: 4.08%
inhibition [1, 6]: 1.74%

Cc1nnsc1Cn1ccc(Br)n1
inhibition [1, 3]: -5.41%
inhibition [1, 4]: 0.654%
inhibition [1, 5]: -3.97%
inhibition [1, 6]: -4.2%

O=c1c2cccn2cnn1Cc1cnc(Cl)s1
inhibition [1, 3]: -5.2%
inhibition [1, 4]: 0.188%
inhibition [1, 5]: -0.072%
inhibition [1, 6]: 7.35%

Brc1ccsc1CSc1cnn[nH]1
inhibition [1, 3]: -4.71%
inhibition [1, 4]: 11.3%
inhibition [1, 6]: 11%

[O-][S@@+](Cc1nc(-c2cccs2)no1)c1cccs1
inhibition [1, 3]: 0.907%
inhibition [1, 4]: 3.98%
inhibition [1, 6]: 5.82%

O=Cc1nc(-c2ccccc2Cl)n2ccccc12
inhibition [2]: 20.2%

Cc1c(C=O)c2ccccn2c1C(=O)c1ccncc1
inhibition [2]: 41.1%

O=S(=O)(c1cccs1)N1CCN(CC=Cc2ccccc2)CC1
inhibition [1, 3]: -7.46%
inhibition [1, 4]: 21.8%
inhibition [1, 5]: -8.18%
inhibition [1, 6]: 2.78%

Cc1nnc(CSc2ncnc3sccc23)o1
inhibition [1, 3]: 8.23%
inhibition [1, 4]: 30.9%
inhibition [1, 5]: 40.5%
inhibition [1, 6]: 55%

c1ccc2[nH]c(CC3CCN(Cc4nccs4)CC3)nc2c1
inhibition [1, 4]: -1.22%
inhibition [1, 6]: -8.35%

COC(=O)c1cc2scc(Br)c2[nH]1
inhibition [1, 3]: -5.44%
inhibition [1, 4]: 11.7%
inhibition [1, 6]: 7.72%

COc1ccc2c(O)nn(S(=O)(=O)c3ccc(C(=O)O)cc3)c2c1
inhibition [1, 4]: 5.93%
inhibition [1, 6]: -6.38%

FC(F)(F)c1nc(CNCc2cocn2)cs1
inhibition [1, 4]: 1.67%
inhibition [1, 5]: -9.44%
inhibition [1, 6]: -3.73%

O=c1[nH]c(CSc2ccccc2Cl)nc2ccsc12
inhibition [1, 3]: -5.28%
inhibition [1, 4]: 18%
inhibition [1, 5]: -7.62%
inhibition [1, 6]: 26%

N#Cc1ccc(S(=O)(=O)CCn2nc(-c3ccco3)oc2=O)cc1
inhibition [1, 3]: -4.79%
inhibition [1, 4]: 5.55%
inhibition [1, 6]: 2.14%

CC[C@H]1CO[C@H](C)CN1c1ccc(C=O)cn1
inhibition [2]: 41.1%

O=Cc1ccc(N2CCC(C(=O)O)CC2)cc1
inhibition [2]: 47.6%

O=c1oc2cccnc2n1CC=Cc1ccccc1
inhibition [1, 4]: 18.7%
inhibition [1, 5]: -5.05%
inhibition [1, 6]: 16.8%

O=c1ccc(-n2cncn2)nn1CC=Cc1ccccc1
inhibition [1, 3]: -6.72%
inhibition [1, 4]: -7%
inhibition [1, 6]: -8.49%

Cc1c(C=O)c2ccccn2c1C#N
inhibition [2]: 30.7%

O=Cc1ccc(N2CCCCCC2)cc1
inhibition [2]: 32.8%

O=C(NCc1ccco1)c1csc(Br)c1
inhibition [1, 3]: -4.81%
inhibition [1, 4]: 6.83%
inhibition [1, 6]: 0.818%

Nc1ccc2ccc(B(O)O)cc2c1
inhibition [2]: 15.2%

N#Cc1csc(CSc2nnc(C(F)(F)F)s2)n1
inhibition [1, 4]: -9.01%
inhibition [1, 5]: -4.46%

Nc1nc(S(=O)(=O)c2ccccc2)c(Cl)s1
inhibition [1, 4]: -1.35%

O=Cc1ccc(N2CCC(C(=O)O)CC2)o1
inhibition [2]: 40.9%

O=C(NCc1nccs1)c1sccc1Cl
inhibition [1, 3]: 0.507%
inhibition [1, 4]: 4.39%
inhibition [1, 5]: -3.58%
inhibition [1, 6]: -1.05%

Cn1c(Sc2nc3ccccc3o2)nc2sccc2c1=O
inhibition [1, 3]: -1.81%
inhibition [1, 4]: 6.37%
inhibition [1, 5]: -7.45%
inhibition [1, 6]: -0.609%

O=S1(=O)CCN(CC#Cc2ccc3sncc3c2)CC1
inhibition [1, 4]: -9.23%
inhibition [1, 6]: 2.54%

O=C(O)c1c(Br)sc2nnsc12
inhibition [1, 3]: -3.57%
inhibition [1, 4]: -5.37%
inhibition [1, 5]: -5.55%
inhibition [1, 6]: 4.97%

N=C(N)NCCC[C@H](NC(=O)c1nccs1)C(=O)N[C@@H](CCCCN)C(=O)N[C@@H](C(N)=O)c1ccc(OCc2ccc(C(F)(F)F)cc2)cc1
inhibition ([1]; Thailand/16681/1984, Concentration 0.309 uM, Number of replicates 2.0, Standard deviation 3.0176373786002046 %): -3.85%
inhibition ([1]; Thailand/16681/1984, Concentration 0.926 uM, Number of replicates 2.0, Standard deviation 1.4110895026482932 %): 12.5%
inhibition ([1]; Thailand/16681/1984, Concentration 2.78 uM, Number of replicates 2.0, Standard deviation 1.2681150356250568 %): 36.5%
inhibition ([1]; Thailand/16681/1984, Concentration 8.33 uM, Number of replicates 2.0, Standard deviation 1.3787183923415196 %): 69.8%
inhibition ([1]; Thailand/16681/1984, Concentration 25.0 uM, Number of replicates 2.0, Standard deviation 1.0239143117161142 %): 89.5%

C[S@@+]([O-])c1nncn1Cc1ccc(Cl)s1
inhibition [1, 4]: 0.166%
inhibition [1, 6]: -6.67%

c1ccc(C2CCN(Cc3ccc4nccnc4c3)CC2)nc1
inhibition [1, 3]: -8.13%
inhibition [1, 4]: 3.52%
inhibition [1, 5]: -6.13%
inhibition [1, 6]: -1.29%

Cc1nnnn1Cc1ncc(Br)s1
inhibition [1, 6]: -5%

c1ccc2nc(SCc3cn4ccccc4n3)cnc2c1
inhibition [1, 3]: -5.61%
inhibition [1, 4]: 10.2%
inhibition [1, 5]: 7.18%
inhibition [1, 6]: 30.9%

c1csc(CSc2nnc(Cn3cncn3)o2)c1
inhibition [1, 4]: 4.46%
inhibition [1, 6]: -3.48%

N#Cc1ccc(OCCn2nnn(-c3ccccc3)c2=O)cc1
inhibition [1, 3]: -7.79%
inhibition [1, 4]: -0.08%
inhibition [1, 5]: -4.33%
inhibition [1, 6]: -2.04%

c1cc(-c2nnc(NCc3nnn[nH]3)s2)no1
inhibition [1, 4]: -2.38%
inhibition [1, 6]: -2.02%

NC(=O)c1ccc(Cn2nnc(C=Cc3ccccc3)n2)cc1
inhibition [1, 3]: -4.9%
inhibition [1, 4]: 8.5%
inhibition [1, 5]: 4.33%
inhibition [1, 6]: 12.7%

Cc1sc2nc(-c3cccs3)[nH]c(=O)c2c1C
inhibition [1, 3]: -5.01%
inhibition [1, 4]: 0.922%
inhibition [1, 6]: -9.15%

CCSc1nnc(SCCn2nc3ccccn3c2=O)s1
inhibition [1, 4]: 5.4%
inhibition [1, 6]: 2.68%

CN(C)c1ccc(C=C(C#N)C(N)=O)cc1
inhibition [2]: 20.8%

O=c1ccn(Cc2cc(=O)n3ccccc3n2)c2ccsc12
inhibition [1, 3]: -1.76%
inhibition [1, 4]: 3.86%
inhibition [1, 5]: -8.57%
inhibition [1, 6]: 4.39%

Brc1cnn(C2CCN(Cc3csnn3)CC2)c1
inhibition [1, 3]: -3.22%
inhibition [1, 4]: 5.64%
inhibition [1, 6]: 5.63%

Cn1ncnc1Sc1nc(C2CCCC2)ns1
inhibition [1, 3]: -3.66%
inhibition [1, 4]: 5.27%
inhibition [1, 5]: -9.35%
inhibition [1, 6]: 3.96%

Cc1cc(NS(=O)(=O)c2ccc(S(=O)(=O)F)cc2)c[nH]c1=O
inhibition [2]: 19.6%

c1nnc(SCCCSc2nncs2)s1
inhibition [1, 3]: -6.11%
inhibition [1, 4]: -7.13%
inhibition [1, 5]: -4.63%
inhibition [1, 6]: -0.768%

COc1nc(Cl)c(CSc2nc(C)co2)s1
inhibition [1, 4]: 2.83%
inhibition [1, 5]: -6.96%
inhibition [1, 6]: 12.2%

O=c1c2ccccc2nnn1CSc1nnc(-c2ccccc2)o1
inhibition [1, 3]: 2.98%
inhibition [1, 4]: 36.2%
inhibition [1, 5]: 31.6%
inhibition [1, 6]: 52.5%

O=Cc1ccc(N2CCCCC2)cc1
inhibition [2]: 37.1%

c1cc2sccc2c(N2CCN(Cc3ccc4cn[nH]c4c3)CC2)n1
inhibition [1, 4]: 8.61%
inhibition [1, 6]: -0.953%

O=C(O)c1sc2cccnc2c1Br
inhibition [1, 3]: -8.71%
inhibition [1, 4]: 12%
inhibition [1, 6]: 2.09%

N=C(N)NCCC[C@H](NC(=O)[C@H](Cc1ccc(CN)cc1)NC(=O)c1ccccc1)B(O)O
inhibition ([1]; Thailand/16681/1984, Concentration 0.103 uM, Number of replicates 2.0, Standard deviation 1.1552277516231042 %): 13.2%
inhibition ([1]; Thailand/16681/1984, Concentration 0.309 uM, Number of replicates 2.0, Standard deviation 1.403761128919186 %): 39.2%
inhibition ([1]; Thailand/16681/1984, Concentration 0.926 uM, Number of replicates 2.0, Standard deviation 1.9316423333512027 %): 73.2%
inhibition ([1]; Thailand/16681/1984, Concentration 2.78 uM, Number of replicates 2.0, Standard deviation 0.6346068363669732 %): 91.6%
inhibition ([1]; Thailand/16681/1984, Concentration 8.33 uM, Number of replicates 2.0, Standard deviation 0.06829499639101128 %): 97.4%
inhibition ([1]; Thailand/16681/1984, Concentration 25.0 uM, Number of replicates 2.0, Standard deviation 0.08100823932985672 %): 98.5%
